Reference: patent publication US20090318412A1, “Tricyclic heterocyclic compound and use thereof” (priority 2006, published 2009)
Structures can show the parent of a compound that is named as a salt.

Target: serotonin 5-HT2C receptor (Homo sapiens, UniProt P28335, I156V/I160V/N158S)
Test: cell-based
Conditions: CHO, read-out: ratio to maximum response by 5-HT

Chain of serotonin 5-HT2C receptor (P28335 33-458 I156V/N158S/I160V limits assumed): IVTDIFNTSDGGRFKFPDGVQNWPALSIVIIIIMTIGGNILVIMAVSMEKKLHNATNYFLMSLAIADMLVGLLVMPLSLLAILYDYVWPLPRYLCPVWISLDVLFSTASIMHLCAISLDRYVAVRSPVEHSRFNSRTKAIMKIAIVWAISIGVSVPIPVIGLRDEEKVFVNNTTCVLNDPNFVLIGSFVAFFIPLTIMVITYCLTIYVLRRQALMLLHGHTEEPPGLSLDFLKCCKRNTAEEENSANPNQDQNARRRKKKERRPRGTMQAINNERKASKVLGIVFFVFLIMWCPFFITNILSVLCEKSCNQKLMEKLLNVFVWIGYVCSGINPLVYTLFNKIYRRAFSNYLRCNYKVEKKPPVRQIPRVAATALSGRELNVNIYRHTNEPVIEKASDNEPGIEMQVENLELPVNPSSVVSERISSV

Compound	Emax
O=C1c2ccc(Cl)cc2OCC2CNCCN12 (stereo not drawn) [Example 5, 9-chloro-1,2,3,4,12,12a-hexahydro-6H-pyrazino[2,1-c][1,4]benzoxazepin-6-one hydrochloride]	101%
Cc1cccc2c1OCC1CNCCN1C2=O (stereo not drawn) [Example 37, 10-methyl-1,2,3,4,12,12a-hexahydro-6H-pyrazino[2,1-c][1,4]benzoxazepin-6-one hydrochloride]	98.3%
Cc1ccc2c(c1)C(=O)N1CCNCC1CO2 (stereo not drawn) [Example 13, 8-methyl-1,2,3,4,12,12a-hexahydro-6H-pyrazino[2,1-c][1,4]benzoxazepin-6-one hydrochloride]	96.9%
Clc1ccc2c(c1)CN1CCNCC1CO2 (stereo not drawn) [Example 7, 8-chloro-1,2,3,4,12,12a-hexahydro-6H-pyrazino[2,1-c][1,4]benzoxazepine dihydrochloride]	107%
O=C1c2c(Br)cccc2OCC2CNCCN12 (stereo not drawn) [Example 41, 7-bromo-1,2,3,4,12,12a-hexahydro-6H-pyrazino[2,1-c][1,4]benzoxazepin-6-one hydrochloride]	96%
COc1ccc2c(c1)C(=O)N1CCNCC1CO2 (stereo not drawn) [Example 31, 8-methoxy-1,2,3,4,12,12a-hexahydro-6H-pyrazino[2,1-c][1,4]benzoxazepin-6-one hydrochloride]	93.8%
O=C1c2cc(Cl)ccc2OCC2CNCCN12 (stereo not drawn) [Example 6, 8-chloro-1,2,3,4,12,12a-hexahydro-6H-pyrazino[2,1-c][1,4]benzoxazepin-6-one hydrochloride]	99.4%
O=C1c2ccccc2OCC2CNCCN12 (stereo not drawn) [Example 1, 1,2,3,4,12,12a-hexahydro-6H-pyrazino[2,1-c][1,4]benzoxazepin-6-one hydrochloride]	114%
O=C1c2c(Cl)cccc2OCC2CNCCN12 (stereo not drawn) [Example 4, 7-chloro-1,2,3,4,12,12a-hexahydro-6H-pyrazino[2,1-c][1,4]benzoxazepin-6-one hydrochloride]	94.6%
c1ccc2c(c1)CN1CCNCC1CO2 (stereo not drawn) [Example 2, 1,2,3,4,12,12a-hexahydro-6H-pyrazino[2,1-c][1,4]benzoxazepine dihydrochloride]	116%
FC(F)(F)c1ccc2c(c1)CN1CCNCC1CO2 (stereo not drawn) [Example 9, 8-(trifluoromethyl)-1,2,3,4,12,12a-hexahydro-6H-pyrazino[2,1-c][1,4]benzoxazepine dihydrochloride]	91.5%
O=C1c2cccc(Cl)c2OCC2CNCCN12 (stereo not drawn) [Example 3, 10-chloro-1,2,3,4,12,12a-hexahydro-6H-pyrazino[2,1-c][1,4]benzoxazepin-6-one hydrochloride]	98.2%
O=C1c2c(cccc2C(F)(F)F)OCC2CNCCN12 (stereo not drawn) [Example 42, 7-(trifluoromethyl)-1,2,3,4,12,12a-hexahydro-6H-pyrazino[2,1-c][1,4]benzoxazepin-6-one hydrochloride]	88.4%
O=C1c2cc(C(F)(F)F)ccc2OCC2CNCCN12 (stereo not drawn) [Example 8, 8-(trifluoromethyl)-1,2,3,4,12,12a-hexahydro-6H-pyrazino[2,1-c][1,4]benzoxazepin-6-one hydrochloride]	96.5%
O=C1c2cc(Br)ccc2OCC2CNCCN12 (stereo not drawn) [Example 10, 8-bromo-1,2,3,4,12,12a-hexahydro-6H-pyrazino[2,1-c][1,4]benzoxazepin-6-one hydrochloride]	107%
